Data on one substance can be found in patent US4550186A, “Binuclear copper (II) carboxylates formed from amine-carboxyboranes” (Duke University, priority 1983, dated 1985).

This experiment has as its target T1, transfer ribonucleic acid polymerase (Mus musculus, UniProt B2RXC6+P59470).
T1 sequence (B2RXC6 1-1390): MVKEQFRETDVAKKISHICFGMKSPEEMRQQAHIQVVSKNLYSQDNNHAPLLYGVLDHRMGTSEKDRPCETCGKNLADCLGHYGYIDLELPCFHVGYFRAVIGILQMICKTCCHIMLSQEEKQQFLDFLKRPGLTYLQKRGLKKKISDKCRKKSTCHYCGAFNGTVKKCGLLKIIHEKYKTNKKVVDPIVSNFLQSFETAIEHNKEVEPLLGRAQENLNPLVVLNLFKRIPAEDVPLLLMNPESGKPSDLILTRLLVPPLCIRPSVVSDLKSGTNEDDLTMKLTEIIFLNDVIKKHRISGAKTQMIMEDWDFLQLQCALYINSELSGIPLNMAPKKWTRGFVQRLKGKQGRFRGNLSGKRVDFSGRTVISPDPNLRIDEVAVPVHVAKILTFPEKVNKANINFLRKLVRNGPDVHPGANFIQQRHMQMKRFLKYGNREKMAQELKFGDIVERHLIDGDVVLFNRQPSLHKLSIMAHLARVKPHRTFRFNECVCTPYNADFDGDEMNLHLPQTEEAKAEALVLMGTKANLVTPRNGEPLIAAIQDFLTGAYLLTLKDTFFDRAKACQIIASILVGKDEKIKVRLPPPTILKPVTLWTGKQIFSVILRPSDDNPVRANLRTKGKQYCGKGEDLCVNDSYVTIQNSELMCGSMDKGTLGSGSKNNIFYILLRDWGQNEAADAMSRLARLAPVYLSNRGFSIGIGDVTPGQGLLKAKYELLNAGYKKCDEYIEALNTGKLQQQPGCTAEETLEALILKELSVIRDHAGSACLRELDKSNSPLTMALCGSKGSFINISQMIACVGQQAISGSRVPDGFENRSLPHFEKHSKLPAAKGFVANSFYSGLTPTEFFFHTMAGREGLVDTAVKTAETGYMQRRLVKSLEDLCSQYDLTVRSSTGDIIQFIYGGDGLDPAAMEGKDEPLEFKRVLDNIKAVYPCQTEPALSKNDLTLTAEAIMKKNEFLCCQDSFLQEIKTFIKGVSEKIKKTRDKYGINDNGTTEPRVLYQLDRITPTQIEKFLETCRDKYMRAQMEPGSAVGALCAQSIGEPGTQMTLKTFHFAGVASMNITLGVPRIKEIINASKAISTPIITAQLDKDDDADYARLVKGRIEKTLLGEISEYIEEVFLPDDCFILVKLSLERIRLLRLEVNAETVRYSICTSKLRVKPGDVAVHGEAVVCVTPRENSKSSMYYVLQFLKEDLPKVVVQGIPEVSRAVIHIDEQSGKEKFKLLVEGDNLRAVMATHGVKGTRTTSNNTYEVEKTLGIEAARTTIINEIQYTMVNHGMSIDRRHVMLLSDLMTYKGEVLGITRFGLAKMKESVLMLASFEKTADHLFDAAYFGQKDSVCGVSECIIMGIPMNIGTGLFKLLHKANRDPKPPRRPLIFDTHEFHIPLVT
T1 sequence (P59470 1-1133): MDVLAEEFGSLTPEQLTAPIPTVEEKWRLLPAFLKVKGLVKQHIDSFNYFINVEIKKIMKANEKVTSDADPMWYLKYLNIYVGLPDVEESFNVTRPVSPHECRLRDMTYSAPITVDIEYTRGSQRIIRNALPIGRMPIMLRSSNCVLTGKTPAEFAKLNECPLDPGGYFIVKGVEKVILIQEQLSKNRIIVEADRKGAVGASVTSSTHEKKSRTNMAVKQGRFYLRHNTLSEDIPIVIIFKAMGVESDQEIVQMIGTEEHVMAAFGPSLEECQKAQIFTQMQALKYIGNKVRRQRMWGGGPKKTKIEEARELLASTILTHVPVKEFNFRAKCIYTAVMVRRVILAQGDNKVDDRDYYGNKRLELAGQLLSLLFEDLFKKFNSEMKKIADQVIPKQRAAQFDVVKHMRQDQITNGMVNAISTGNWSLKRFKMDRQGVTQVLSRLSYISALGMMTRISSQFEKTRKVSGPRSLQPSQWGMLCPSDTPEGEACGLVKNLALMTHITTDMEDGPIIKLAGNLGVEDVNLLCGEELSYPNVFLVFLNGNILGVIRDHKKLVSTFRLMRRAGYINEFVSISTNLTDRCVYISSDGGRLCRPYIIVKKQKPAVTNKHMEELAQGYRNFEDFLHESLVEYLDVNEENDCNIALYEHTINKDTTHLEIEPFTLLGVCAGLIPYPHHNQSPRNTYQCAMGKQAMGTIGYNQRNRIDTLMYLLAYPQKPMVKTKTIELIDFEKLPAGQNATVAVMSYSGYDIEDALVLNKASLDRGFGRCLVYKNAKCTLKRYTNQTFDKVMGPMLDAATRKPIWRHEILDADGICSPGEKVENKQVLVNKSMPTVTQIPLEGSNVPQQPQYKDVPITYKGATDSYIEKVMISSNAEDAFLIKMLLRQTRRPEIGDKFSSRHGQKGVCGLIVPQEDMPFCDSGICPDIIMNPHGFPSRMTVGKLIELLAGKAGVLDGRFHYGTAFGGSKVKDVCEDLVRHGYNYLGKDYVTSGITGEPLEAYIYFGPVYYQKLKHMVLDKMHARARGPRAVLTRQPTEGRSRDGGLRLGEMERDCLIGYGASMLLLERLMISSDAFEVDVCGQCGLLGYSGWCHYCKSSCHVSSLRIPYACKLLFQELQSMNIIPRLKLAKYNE
The experiment is described as follows: In vitro transfer ribonucleic acid polymerase activity. The format is biochemical. The conditions noted are these: read-out: ID50, Transfer ribonucleic acid polymerase activity. As to the method:
CF1 male mice (~30 g) were implanted with 2×10^6 Ehrlich ascites tumor cells, intraperitoneally on Day 0. Compound I was suspended by homogenation in 0.05% polysorbate.80-water and administered intraperitoneally at 10 and 20 mg/kg for 9 days to determine its effectiveness for inhibition of tumor growth. Mice were sacrificed on Day 10, and the ascites fluid was collected from the peritoneal cavity. The volume and ascrit (packed cell volume) were determined for each animal and the percent inhibition of tumor growth was calculated. For the metabolic studies, mice were treated on Days 8 and 9 with 10 mg/kg of Compound I, intraperitoneally. The animal was sacrificed on Day 10 and the ascites fluid harvested. The in vitro metabolic studies were performed at […] final concentration of Compound I.
In vitro and in vivo nuclear deoxyribonucleic acid polymerase activity was determined on isolated Ehrlich ascites cell nuclei. The incubation was that described by Sawada et al [Can. Res., 34, 3341 (1974)] except that [methyl-^3 H] deoxythymidine triphosphate (82.4 Ci/mmol) was used. The acid insoluble nucleic acid was collected on GF/F filters and counted. Nuclear ribonucleic acid polymerase activities were determined on enzymes isolated from nuclei. […] The acid insoluble ribonucleic acid was collected on nitrocellulose filters and counted.

On to “{Cu[(CH3)3 N.BH2 CO2 ]2.(CH3)3 N.BH2 COOH} [Compound I]”, for which the IC50 worked out at 433 µM.
